Laboratory results: publication PMC6199744, “Development of Chemical Proteomics for the Folateome and Analysis of the Kinetoplastid Folateome” (ACS Infectious Diseases, 2018)
Read-outs that look alike come from different tables or passages of the source.

What was measured:
Format in all cases: binding
[1] = biological target: T1, HeLa cell extract proteins (Homo sapiens, UniProt P05387)
T1 construct: endogenous in cells; host or cells: HeLa cell extract

[2] = biological target: T2, HeLa cell extract proteins (Homo sapiens, UniProt P50502)
T2 construct: endogenous in cells; host or cells: HeLa cell extract
T2 sequence (P50502 1-369): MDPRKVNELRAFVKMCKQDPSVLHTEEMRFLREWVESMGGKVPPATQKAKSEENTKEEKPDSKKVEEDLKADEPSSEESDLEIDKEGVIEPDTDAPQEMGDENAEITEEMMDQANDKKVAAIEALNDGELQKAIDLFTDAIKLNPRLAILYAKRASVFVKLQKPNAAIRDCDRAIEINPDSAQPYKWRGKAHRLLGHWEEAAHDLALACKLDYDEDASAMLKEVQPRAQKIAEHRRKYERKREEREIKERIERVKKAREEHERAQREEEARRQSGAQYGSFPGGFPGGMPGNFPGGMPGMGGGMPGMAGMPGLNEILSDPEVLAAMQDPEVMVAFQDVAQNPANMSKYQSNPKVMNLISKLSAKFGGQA

[3] = biological target: T3, HeLa cell extract proteins (Homo sapiens, UniProt P51398)
T3 construct: endogenous in cells; host or cells: HeLa cell extract

[4] = biological target: T4, HeLa cell extract proteins (Homo sapiens, UniProt P61457)
T4 construct: endogenous in cells; host or cells: HeLa cell extract
T4 sequence (P61457 1-104): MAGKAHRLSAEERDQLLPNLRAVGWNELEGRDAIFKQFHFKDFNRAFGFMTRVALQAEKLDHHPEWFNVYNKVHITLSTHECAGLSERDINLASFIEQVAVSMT

[5] = biological target: T5, HeLa cell extract proteins (Homo sapiens, UniProt P61978)
T5 construct: endogenous in cells; host or cells: HeLa cell extract

[6] = biological target: T6, HeLa cell extract proteins (Homo sapiens, UniProt P68104)
T6 construct: endogenous in cells; host or cells: HeLa cell extract
T6 sequence (P68104 1-462): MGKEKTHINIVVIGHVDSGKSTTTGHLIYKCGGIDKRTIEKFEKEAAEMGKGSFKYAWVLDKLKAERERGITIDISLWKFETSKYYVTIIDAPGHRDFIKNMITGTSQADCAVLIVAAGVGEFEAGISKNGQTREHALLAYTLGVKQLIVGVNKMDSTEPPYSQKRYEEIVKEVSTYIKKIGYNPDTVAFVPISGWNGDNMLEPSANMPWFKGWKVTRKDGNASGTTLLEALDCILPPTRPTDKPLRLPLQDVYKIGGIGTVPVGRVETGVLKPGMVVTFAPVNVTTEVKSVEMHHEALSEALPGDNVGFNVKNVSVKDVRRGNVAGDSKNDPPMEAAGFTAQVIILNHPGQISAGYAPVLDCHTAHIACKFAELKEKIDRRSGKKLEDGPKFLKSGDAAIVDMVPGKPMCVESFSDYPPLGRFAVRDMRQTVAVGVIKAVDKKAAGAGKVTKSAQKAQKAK

[7] = biological target: T7, HeLa cell extract proteins (Homo sapiens, UniProt Q5H9R7)
T7 construct: endogenous in cells; host or cells: HeLa cell extract
T7 sequence (Q5H9R7 1-873): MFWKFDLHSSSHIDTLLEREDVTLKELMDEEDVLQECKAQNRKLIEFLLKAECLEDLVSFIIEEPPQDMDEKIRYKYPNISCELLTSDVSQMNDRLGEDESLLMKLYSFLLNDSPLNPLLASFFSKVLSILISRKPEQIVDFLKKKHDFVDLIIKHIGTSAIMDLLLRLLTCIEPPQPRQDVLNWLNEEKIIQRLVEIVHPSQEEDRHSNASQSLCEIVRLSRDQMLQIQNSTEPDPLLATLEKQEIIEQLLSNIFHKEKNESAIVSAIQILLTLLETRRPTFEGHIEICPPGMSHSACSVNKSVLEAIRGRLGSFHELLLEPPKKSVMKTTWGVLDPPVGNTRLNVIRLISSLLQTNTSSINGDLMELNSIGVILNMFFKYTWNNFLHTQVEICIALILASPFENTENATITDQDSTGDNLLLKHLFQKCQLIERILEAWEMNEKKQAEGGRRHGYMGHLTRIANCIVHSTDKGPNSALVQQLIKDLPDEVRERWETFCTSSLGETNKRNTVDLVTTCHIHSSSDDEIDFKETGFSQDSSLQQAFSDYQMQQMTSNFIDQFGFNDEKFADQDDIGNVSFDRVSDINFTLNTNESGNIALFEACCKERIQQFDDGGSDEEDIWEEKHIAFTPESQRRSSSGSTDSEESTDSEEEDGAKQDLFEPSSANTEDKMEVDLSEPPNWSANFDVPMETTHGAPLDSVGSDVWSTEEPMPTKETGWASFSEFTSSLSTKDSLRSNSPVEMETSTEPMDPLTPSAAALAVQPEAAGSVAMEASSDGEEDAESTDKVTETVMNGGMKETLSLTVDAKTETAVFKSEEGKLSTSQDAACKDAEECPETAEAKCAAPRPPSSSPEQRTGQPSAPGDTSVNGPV

[8] = biological target: T8, HeLa cell extract proteins (Homo sapiens, UniProt Q96AE4)
T8 construct: endogenous in cells; host or cells: HeLa cell extract
T8 sequence (Q96AE4 1-644): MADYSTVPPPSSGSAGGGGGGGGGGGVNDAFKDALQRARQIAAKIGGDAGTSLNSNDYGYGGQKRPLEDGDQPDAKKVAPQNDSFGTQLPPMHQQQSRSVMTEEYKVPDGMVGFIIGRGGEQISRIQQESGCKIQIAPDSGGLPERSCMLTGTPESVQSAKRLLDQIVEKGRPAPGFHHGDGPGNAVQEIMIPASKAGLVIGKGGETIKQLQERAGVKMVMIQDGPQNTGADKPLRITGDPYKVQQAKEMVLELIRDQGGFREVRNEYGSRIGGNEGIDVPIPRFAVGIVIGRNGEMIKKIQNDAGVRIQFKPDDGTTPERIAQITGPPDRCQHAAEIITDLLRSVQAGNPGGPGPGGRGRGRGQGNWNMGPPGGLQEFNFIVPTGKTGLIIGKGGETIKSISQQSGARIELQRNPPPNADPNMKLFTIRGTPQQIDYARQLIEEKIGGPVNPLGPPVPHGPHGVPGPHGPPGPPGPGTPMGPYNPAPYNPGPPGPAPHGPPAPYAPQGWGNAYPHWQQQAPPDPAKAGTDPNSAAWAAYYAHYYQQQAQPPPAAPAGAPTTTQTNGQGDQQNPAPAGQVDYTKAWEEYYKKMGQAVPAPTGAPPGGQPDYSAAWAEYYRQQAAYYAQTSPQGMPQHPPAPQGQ

[9] = HeLa, protein ST13 (HSC70-INTERACTING PROTEIN.)

T1 sequence (P05387 whole entry): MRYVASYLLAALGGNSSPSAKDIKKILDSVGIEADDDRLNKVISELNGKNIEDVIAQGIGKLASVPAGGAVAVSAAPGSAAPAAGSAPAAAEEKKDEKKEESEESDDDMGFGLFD

Nc1nc2cccc(-c3ccccc3)c2n1Cc1ccc(Cl)c(Cl)c1 [compound 3]
fold changes relative to vehicle control ([1]; protein RPLP2, HeLa): 0.81
fold changes relative to vehicle control [2, 9]: 1.09 fold
fold changes relative to vehicle control ([3]; protein DAP3, HeLa): 1
fold changes relative to vehicle control ([4]; captured protein PCBD1, HeLa): 1.29
fold changes relative to vehicle control ([5]; protein HNRNPK, HeLa): 1.02
fold changes relative to vehicle control ([6]; protein EEF1A1, HeLa): 0.97
fold changes relative to vehicle control ([7]; HeLa, protein SAPS3): 1.11
fold changes relative to vehicle control ([8]; protein FUBP1, HeLa): 1

Nc1nc2[nH]cc(CCc3ccc(C(=O)N[C@@H](CCC(=O)O)C(=O)O)cc3)c2c(=O)[nH]1 [PTX, pemetrexed]
fold changes relative to vehicle control [1]: 0.94
fold changes relative to vehicle control [2]: 1.12
fold changes relative to vehicle control [3]: 0.9
fold changes relative to vehicle control [4]: 1.68
fold changes relative to vehicle control [5]: 0.96
fold changes relative to vehicle control [6]: 0.93
fold changes relative to vehicle control [7]: 0.94
fold changes relative to vehicle control [8]: 1.17

Nc1nc2c(c(=O)[nH]1)N(C=O)C(CNc1ccc(C(=O)N[C@@H](CCC(=O)O)C(=O)O)cc1)CN2 (some centres unmarked) [LEU, leucovorin]
fold changes relative to vehicle control ([1]; protein RPLP2, HeLa): 0.82
fold changes relative to vehicle control ([2]; protein ST13, HeLa): 0.98
fold changes relative to vehicle control ([3]; HeLa, captured protein DAP3): 0.98
fold changes relative to vehicle control ([4]; HeLa, captured protein PCBD1): 1.4
fold changes relative to vehicle control ([5]; HeLa, protein HNRNPK): 0.94
fold changes relative to vehicle control ([6]; HeLa, captured protein EEF1A1): 1.01
fold changes relative to vehicle control ([7]; HeLa, protein SAPS3): 0.94
fold changes relative to vehicle control ([8]; HeLa, captured protein FUBP1): 1.09

CCCCCCOc1cccc(Cc2cnc(N)nc2N)c1 [compound 2]
fold changes relative to vehicle control ([1]; protein RPLP2, HeLa): 1.65
fold changes relative to vehicle control [2, 9]: 2.63 fold
fold changes relative to vehicle control ([3]; protein DAP3, HeLa): 1.16
fold changes relative to vehicle control ([4]; captured protein PCBD1, HeLa): 0.96
fold changes relative to vehicle control ([5]; protein HNRNPK, HeLa): 1.39
fold changes relative to vehicle control ([6]; protein EEF1A1, HeLa): 1.47
fold changes relative to vehicle control ([7]; HeLa, protein SAPS3): 1.09
fold changes relative to vehicle control ([8]; protein FUBP1, HeLa): 1.48

NCCOCCOCC(=O)Nc1nc2ncc(CNc3ccc(C(=O)NC(CCC(=O)O)C(=O)O)cc3)nc2c(=O)[nH]1 (centres unmarked) [compound 6]
fold changes relative to vehicle control ([1]; protein RPLP2, HeLa): 1.04
fold changes relative to vehicle control ([2]; protein ST13, HeLa): 1.3
fold changes relative to vehicle control ([3]; HeLa, captured protein DAP3): 0.84
fold changes relative to vehicle control ([4]; HeLa, captured protein PCBD1): 1.58
fold changes relative to vehicle control ([5]; HeLa, protein HNRNPK): 1.13
fold changes relative to vehicle control ([6]; HeLa, captured protein EEF1A1): 0.99
fold changes relative to vehicle control ([7]; HeLa, protein SAPS3): 0.88
fold changes relative to vehicle control ([8]; HeLa, captured protein FUBP1): 1.28

CCCCCCOc1ccc(Cc2cnc(N)nc2N)cc1 [compound 1]
fold changes relative to vehicle control ([1]; protein RPLP2, HeLa): 0.76
fold changes relative to vehicle control [2, 9]: 1.44 fold
fold changes relative to vehicle control ([3]; protein DAP3, HeLa): 1.27
fold changes relative to vehicle control ([4]; captured protein PCBD1, HeLa): 1.01
fold changes relative to vehicle control ([5]; protein HNRNPK, HeLa): 0.99
fold changes relative to vehicle control ([6]; protein EEF1A1, HeLa): 1.17
fold changes relative to vehicle control ([7]; HeLa, protein SAPS3): 0.96
fold changes relative to vehicle control ([8]; protein FUBP1, HeLa): 1.24

NCCCNc1ccc(C(=O)NC(CCC(=O)O)C(=O)O)cc1 (centres unmarked) [compound 7]
fold changes relative to vehicle control ([1]; protein RPLP2, HeLa): 0.82
fold changes relative to vehicle control ([2]; protein ST13, HeLa): 1.04
fold changes relative to vehicle control ([3]; HeLa, captured protein DAP3): 0.94
fold changes relative to vehicle control ([4]; HeLa, captured protein PCBD1): 1.48
fold changes relative to vehicle control ([5]; HeLa, protein HNRNPK): 0.95
fold changes relative to vehicle control ([6]; HeLa, captured protein EEF1A1): 0.93
fold changes relative to vehicle control ([7]; HeLa, protein SAPS3): 0.93
fold changes relative to vehicle control ([8]; HeLa, captured protein FUBP1): 1
